Experiments:
[1] = Carrageenan-induced paw edema in the rat (anti-inflammatory activity); type: in vivo; conditions: 3 h, 10 mg/Kg, oral, female rats, read-out: % inhibition of increase in hind paw weight
Description: The anti-inflammatory activity of compounds of this invention was determined by measuring the inhibition of carrageenan-induced paw edema in the rat, using a modification of the method described in Winter C. k et al (1962) "Carrageenan-Induced Edema in Hind Paw of the Rat as an Assay for Anti-inflammatory Drugs". Proc. Soc. Exp. Biol. Med. 111: 544-547. This assay has been used as a primary in vivo screen for anti-inflammatory activity of most NSAIDs, and is considered predictive of human efficacy. Briefly, test materials were administered orally to female rats in a volume of 1 ml prepared as solutions or suspensions in an aqueous vehicle containing 0.9% NaCl, 0.5% sodium carboxymethyl-cellulose, 0.4% polysorbate 80, 0.9% benzyl alcohol and 97.3% distilled water. Control rats received vehicle alone. After 1 hr 0.05 ml of a 0.5% solution of Carrageenan (Type IV Lambda, Sigma Chemical Co.) in 0.9% saline was injected into the subplantar region of the right hind paw. Three hours later the rats were euthanized in a carbon dioxide atmosphere; hind paws were removed by severing at the tatso-crural joint; and the left and right paws were weighed. The increase in weight of the right paw over the left paw was obtained for each animal and the mean increases were calculated for each group. The anti-inflammatory activity of the test materials is expressed as the percent inhibition of the increase in hind paw weight of the test group relative to the vehicle-dosed control group.
The anti-inflammatory activities (expressed as % inhibition) of some of the compounds of the invention were: […]

COX II = biological target: T1, COX II (Homo sapiens, UniProt P35354); assay: Inhibition of COX II in vitro, partially purified enzyme, radiometric assay; type: biochemical; parameters: made in house; conditions: 20 micromolar arachidonic acid
T1 sequence (P35354 18-604): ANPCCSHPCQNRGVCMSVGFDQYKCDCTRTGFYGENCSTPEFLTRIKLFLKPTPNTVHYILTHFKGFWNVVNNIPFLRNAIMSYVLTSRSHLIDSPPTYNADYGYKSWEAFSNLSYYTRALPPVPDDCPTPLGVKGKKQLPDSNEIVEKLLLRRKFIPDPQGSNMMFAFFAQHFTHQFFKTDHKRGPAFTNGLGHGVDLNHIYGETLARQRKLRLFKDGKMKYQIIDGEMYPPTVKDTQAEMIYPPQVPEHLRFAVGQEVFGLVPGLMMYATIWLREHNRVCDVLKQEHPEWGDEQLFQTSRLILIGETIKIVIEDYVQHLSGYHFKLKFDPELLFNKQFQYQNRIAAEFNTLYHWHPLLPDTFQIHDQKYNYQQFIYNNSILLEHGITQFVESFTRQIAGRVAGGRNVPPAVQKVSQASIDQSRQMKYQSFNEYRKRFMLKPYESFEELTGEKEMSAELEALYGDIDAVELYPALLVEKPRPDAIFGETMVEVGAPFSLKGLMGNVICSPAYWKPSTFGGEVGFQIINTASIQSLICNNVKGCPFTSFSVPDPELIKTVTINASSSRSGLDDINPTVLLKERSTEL
Description: The COX I and COX II inhibitory activity of compounds of this invention in vitro was determined using partially purified COX I and COX II enzymes, prepared as described in J. Barnett et al, Biochim. Biophys.
COX I and COX II samples were diluted with Tris-HCl buffer (50 mM Tris-HCl, pH 7.9) containing 2 mM EDTA and 10% glycerol and reconstituted by incubating first with 2 mM phenol for 5 minutes and then with 1 micromolar hematin for an additional 5 minutes. 125 μl of the reconstituted COX I or COX II enzyme were preincubated for 10 minutes at room temperature in a shaking water bath with the compounds of the invention dissolved in 2-15 μl of DMSO or the carrier vehicles (control samples). The enzyme reaction was initiated by adding 25 μl of 1-[14C]arachidonic acid (80,000-100,000 cpm/tube; 20 micromolar final concentration) and the reaction was allowed to continue for an additional 45 seconds. The reaction was terminated by adding 100 μl of 2N HCl and 750 μl water. An aliquot (950 μl) of the reaction mixture was loaded onto a 1 ml C18 Sep-Pak column (J. T. Baker, Phillipsburg, N.J.) which had been previously washed with 2-3 ml methanol and equilibrated with 5-6 ml distilled water. Oxygenated products were quantitatively eluted with 3 ml of acetonitrile/water/acetic acid (50:50:0.1, v/v) and the radioactivity in the eluate determined in a scintillation counter.

COX I = COX I (Homo sapiens, UniProt P23219); assay: Inhibition of COX I in a cell based assay (human promonocytic THP cells, TXB2 ELISA); parameters: endogenous in cells; host or cells: human promonocytic THP cells, PMA-treated
Sequence of COX I (P23219 24-599): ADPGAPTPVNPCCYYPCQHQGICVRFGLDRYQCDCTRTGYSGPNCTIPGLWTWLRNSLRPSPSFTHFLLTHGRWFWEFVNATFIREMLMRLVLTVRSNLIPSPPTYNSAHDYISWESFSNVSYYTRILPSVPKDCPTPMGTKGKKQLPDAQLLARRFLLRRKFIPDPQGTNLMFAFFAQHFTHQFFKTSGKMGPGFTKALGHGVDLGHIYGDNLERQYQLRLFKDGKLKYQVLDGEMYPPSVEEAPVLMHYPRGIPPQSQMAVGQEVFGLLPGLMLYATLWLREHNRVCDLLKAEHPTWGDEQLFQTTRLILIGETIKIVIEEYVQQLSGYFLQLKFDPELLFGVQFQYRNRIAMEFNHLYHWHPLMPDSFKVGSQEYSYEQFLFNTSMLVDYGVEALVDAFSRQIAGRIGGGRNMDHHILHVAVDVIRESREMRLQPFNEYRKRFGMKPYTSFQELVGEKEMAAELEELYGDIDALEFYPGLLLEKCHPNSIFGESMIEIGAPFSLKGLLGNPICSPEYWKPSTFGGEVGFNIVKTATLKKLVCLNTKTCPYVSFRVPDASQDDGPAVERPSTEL
Description: The COX I and COX II inhibitory activity of compounds of this invention in a cell based assay was determined as described below.
The inhibitory activity of the test compounds against cell associated COX-1 was measured using human promonocytic THP cells. Cells were plated in 96-well microtiter plates at a density of 8×10^4 cells/well in RPMI-1640 medium (Gibco). COX-1 activity was initiated by incubating the cells with 0.1μM phorbol 12-myristate 13-acetate (PMA, Sigma) in dimethyl sulfoxide (DMSO, Aldrich) at 37° C. After 40-48 hours, the medium was removed, and the cells were washed twice with phosphate buffered saline (PBS, Gibco). 225 μl/well of fresh medium containing desired concentrations of the test compounds in DMSO, or the carrier vehicles (control wells), was added and the cells incubated at 37° C. for 30 minutes; after which 5 μM calcium ionophore A23187 (Sigma) was added and the incubation was continued for an additional 10 minutes. The reaction was terminated by transferring the plates to ice. The culture supernatants were transferred and appropriately diluted and the amount of thromboxane B2 (TXB2) present in each supernatant was quantitated using an ELISA kit (Cayman Chemicals).
The COX I and COX II inhibitory activities in the cell based assay (expressed as IC50) of some compounds of the invention were: […]

IC50 (COX II): 1.8 µM | IC50 (COX I): 4.8 µM
SMILES: COc1ccc(C(=O)c2cccc(Cc3ccc(=O)[nH]n3)c2C)cc1 [Cpd 11, 6-[3-(4-methoxybenzoyl)-2-methylbenzyl]-2H-pyridazin-3-one]
inhibition in vivo at 10 mg/kg [1]: 44%

From patent US5886178A, “3-aroylbenzylpyridazinone derivatives” (Syntex (U.S.A.) Inc., priority 1997, dated 1999)
